From ChEMBL document CHEMBL2094269, “WEHI/Eskitis Trypanosoma b. brucei screening data”
pIC50: −log10 of the molar value. “And” between values parts separate entries of the source, which are not always exact repeats. Equal entries are not always repeated.

Test system: Trypanosoma brucei brucei
Assay: microbe, parasite or virus in culture
Assay type: functional, organism-based, STIB 795
Description: DNDI: Inhibition of Human African Trypanosomiasis (HAT), STIB 795, in vitro

SMILES | pIC50 (Trypanosoma brucei, STIB 795) | pIC50
NCC(OCc1ccc(-c2ccccc2)cc1)c1ccccc1 (configuration not stated) | < 4.98 | 
CC1CCN(S(=O)(=O)c2ccc3c4c2CC(=O)N4CC(C)S3)CC1 (configuration not stated) | < 4.98 | 
O=C1C(Nc2ccccc2)=C/C(=N/S(=O)(=O)c2cccs2)c2ccccc21 | < 4.98 | 
Cc1ccc(C(=N)NOC(=O)c2ccco2)cc1 | < 4.98 | 
COc1ccc(S(=O)(=O)C(CC(=O)c2ccccc2)c2ccccc2)cc1 (configuration not stated) | < 4.98 | 
N=C(NOC(=O)c1cccc(Cl)c1)c1cccnc1 | < 4.98 | 
CCC(=O)c1ccc(Oc2cc(=O)n(C)c(=O)n2C)cc1 | < 4.98 | 
COC(=O)C1=C(C)N(c2ccccc2)/C(=C/c2cccc3ccccc23)C1=O | < 4.98 | 
C=C(CC(CN1CCOCC1)C(=O)c1ccccc1)C(=O)c1ccccc1 (configuration not stated) | < 4.98 | 
O=C(CC(SCc1ccco1)c1ccc(C(F)(F)F)cc1)c1ccco1 (configuration not stated) | < 4.98 | 
Oc1ccc(-c2nnc(SCCN3CCCCC3)n2Cc2ccccc2)cc1 | < 4.98 | 
O=C(CCn1nnc2ccccc21)N/N=C/c1cc(Br)ccc1O | < 4.98 | 
COc1ccc(C(=O)CC(SCCO)c2ccc(F)cc2)cc1OC (configuration not stated) | < 4.98 | 
COc1ccc(CN2CCN(C3CCC(c4ccccc4)CC3)CC2)c(OC)c1 (configuration not stated) | < 4.98 | 
O=NC1=C(c2c(O)[nH]c3ccccc23)CCCC1 | < 4.98 | 
C/C(=N/NC(=O)c1cc(-c2ccccc2)nc2ccccc12)c1ccccc1O | < 4.98 | 
N=C(NOC(=O)c1cccc(Br)c1)c1ccncc1 | < 4.98 | 
CCOC(=O)c1c(N)sc2c(OCC)c(Br)ccc12 | < 4.98 | 
COc1cccc(/C=N/NC(=O)c2ccccc2I)c1O | < 4.98 | 
O=C(O/N=C(/c1ccc2c(c1)OCO2)N1CCCCC1)c1ccccc1 | < 4.98 | 

SMILES | pIC50 (Trypanosoma brucei, STIB 795) | pIC50
COc1ccc(OC)c(/C=C/C(=O)Nc2ccc(C(=O)OCCC(C)C)cc2)c1 | < 4.98 | 
CN(C)c1ccc(N=c2cc(-c3ccccc3)sc(-c3ccccc3)c2)cc1 | < 4.98 | 
N#CC1=C(N)NC(SCc2ccc(F)cc2)=C(C#N)C12CCCCC2 | < 4.98 | 
CN1CCN(C2Cc3ccccc3Sc3cc(C(F)(F)F)ccc32)CC1 (configuration not stated) | < 4.98 | 
C=CCNC(=O)CCCc1nc2cccnc2n1Cc1ccc(F)cc1 | < 4.98 | 
CCN1/C(=C/C2=CC(=O)CC(C)(C)C2)Sc2ccccc21 | 5.27 | 5.26
CCCCN(CCCC)CCC12CC3CC(CC(C3)C1)C2 | < 4.98 | 
COc1ccc(C(=O)CSC2=C(C#N)C3(CCCCC3)C(C#N)=C(N)N2)cc1 | < 4.98 | 
CCN(CC)CC(O)CN(/N=C/c1ccc(N(CC)CC)cc1)c1ccccc1 (configuration not stated) | < 4.98 | 
OCCN1CCN(C2Cc3ccccc3Sc3cc(Cl)c(F)cc32)CC1 (configuration not stated) | < 4.98 | 
COc1ccc(C(=O)c2ccc(N3CCNCC3)c(F)c2)cc1Br | < 4.98 | 
CCCN(CCC)CC(O)COc1ccc2ccccc2c1 (configuration not stated) | < 4.98 | 
Fc1ccccc1Cn1c(C2CCCO2)nc2ccccc21 (configuration not stated) | < 4.98 | 
N/C(=N\OC(=O)c1ccc(F)cc1)c1cccnc1 | < 4.98 | 
CCOc1cc(CNC2CCCC2)cc(Cl)c1OCc1ccccc1 | < 4.98 | 
Nc1cc(NC(=O)c2ccncc2)cc(Oc2ccc(F)cc2)c1 | < 4.98 | 
CCCN1C/C(=C/c2cccc(F)c2)C(=O)/C(=C/c2cccc(F)c2)C1 | < 4.98 | 
OC(CNCCc1ccccc1)Cn1c2c(c3ccccc31)CCCC2 (configuration not stated) | < 4.98 | 
CN(C)c1ccc(/C=C2\SC(=N)N(c3nccs3)C2=O)cc1 |  | 5.22 and 4.81
Cc1c(NC(=O)CN2CCN(C(=O)c3ccccc3)CC2)n(C)c2ccccc12 | < 4.98 | 

Second part, the compound after the results:

pIC50 (Trypanosoma brucei, STIB 795) | pIC50 | SMILES
< 4.98 |  | C/C(=N/OC(=O)c1ccc(Cn2nc(C)c(Cl)c2C)cc1)c1ccccn1
< 4.98 |  | Cc1cc(C)n(-c2nc(N/N=C/c3cccs3)nc(Nc3ccccc3)n2)n1
< 4.98 |  | C/C(=C\c1nsc(Nc2ccc(F)c(Cl)c2)n1)NCCC1=CCCCC1
< 4.98 |  | CCC(=O)Nc1nc2ccc(NS(=O)(=O)c3ccccc3F)cc2s1
< 4.98 |  | Clc1nn2nnnc2c2ccccc12
< 4.98 |  | CC1=C(C#N)C(C)C2=C(c3ccccc3C2=O)N1C (configuration not stated)
< 4.98 |  | Cc1cc(OCC(=O)NNc2ccccc2)c(C(C)C)cc1Cl
< 4.98 |  | CNC(=O)c1c[nH]c2ccc(S(=O)(=O)Nc3ccccc3C)cc2c1=O
< 4.98 |  | CCN(CC)C(=O)c1ccc(Nc2ccnc3cc4ccccc4cc23)cc1
< 4.98 |  | CC(=O)N(C)c1ccc(/N=C2/C(=O)Nc3cc(Br)c(C)cc32)cc1
< 4.98 |  | O=C1N=C(Nc2cccc(Cl)c2Cl)S/C1=C\c1ccc(O)c(O)c1
< 4.98 |  | CC(C)(C)C(=O)Nc1cccc(NC(=O)c2ccc(C(C)(C)C)cc2)c1
< 4.98 |  | CC(=O)c1cccc(Nc2cc(C)nc3c(C)cc(C)cc23)c1
< 4.98 |  | CCN(CC)c1ccc(N)c(C)c1
< 4.98 |  | CSc1cccc(C(=O)Nc2cc(F)c(F)cc2Cl)c1
< 4.98 |  | COc1ccc(-c2cc(-c3c(O)ccc4ccccc34)n[nH]2)cc1
< 4.98 |  | c1ccc(Nc2n[n+](-c3ccccc3)nc3ccccc23)cc1
< 4.98 |  | Cc1ncc(C)c2c1[nH]c1ccccc12
< 4.98 |  | COc1cccc(C2=CC(c3cc(OC)c(OC)c(OC)c3)n3nnnc3N2)c1 (configuration not stated)
< 4.98 |  | CCN(CC)c1cc(C)nc(NCc2ccccc2)n1
< 4.98 |  | CCOC(=O)c1ccc(NC(=O)NC23CC4(C)CC(C)(CC(C)(C4)C2)C3)cc1
< 4.98 |  | CCOC(=O)c1nc(Nc2cc(Cl)c(OC)cc2OC)c2ccccc2n1
< 4.98 |  | Cc1c(-c2cccc(O)c2)ccc2nc(N)nc(N)c12

pIC50 (Trypanosoma brucei, STIB 795) | pIC50 | SMILES
< 4.98 |  | CN(C)CCC1=Cc2cc(Cl)ccc2Sc2ccccc21
< 4.98 |  | Cc1ccc(NC(=O)CN(C)C(=O)c2ccc3c(c2)nnn3C(C)C)c(Cl)c1
< 4.98 |  | O=C(N/N=C/c1cc(Cl)cc(Br)c1O)c1ccccc1O
< 4.98 |  | CCOC(=O)c1c(C)[nH]c2c1-c1cc(Br)ccc1C(=O)C2=O
< 4.98 |  | CC1=NN(c2ccccc2)C(=O)/C1=C/c1ccc(Sc2ccc(Cl)cc2)o1
< 4.98 |  | Cc1cccc(C(=O)N2CCN(c3cc(N4CCOCC4)nc(C)n3)CC2)c1
< 4.98 |  | COc1ccc(Nc2nc(N3CCN(C)CC3)nc3c2cnn3C)cc1Cl
< 4.98 |  | CCCCC(CC)C(=O)Nc1ccc2ccc3cccnc3c2n1 (configuration not stated)
< 4.98 |  | CC1=C/C(=N\OC(=O)c2ccccc2Cl)CC(C)(C)C1
< 4.98 |  | Cn1nc(-c2cccs2)nc2c(=O)n(C)c(=O)nc1-2
< 4.98 |  | Cn1ccnc1-c1c(-c2ccc(Cl)cc2)nc(-c2ccc(Cl)cc2)n1O
< 4.98 |  | Cc1ccc(-c2csc3ncnc(N/N=C/c4cc(C)ccc4O)c23)cc1
< 4.98 |  | COc1ccc(CC(=O)Nc2sc3c(c2C#N)CC(C)(C)NC3(C)C)cc1
< 4.98 |  | CC(Nc1cccc2ccccc12)C(=O)N/N=C/c1cccc(O)c1 (configuration not stated)
< 4.98 |  | Cc1cc(C)c2nc(C)cc(Nc3ccc(N(C)C)cc3)c2c1
< 4.98 |  | Cc1cnn(-c2cc(N/N=C/c3cc(Cl)cc(Cl)c3O)ncn2)c1
< 4.98 |  | CC(C)CCn1c(/C=N/Nc2nc3ccccc3[nH]2)nc2ccccc21
< 4.98 |  | Cc1ccc(NC(=O)C/C(N)=N/OC(=O)c2ccccc2Cl)cc1
< 4.98 |  | Cc1cnc(NC(=O)c2ccc(Cl)c(Cl)c2)s1
< 4.98 |  | COCC(=O)N/N=C/c1ccc(Sc2cccc3cccnc23)o1
< 4.98 |  | C/C(=N\NC(=O)c1ccc(C)c(Br)c1)c1ccc(O)cc1O
< 4.98 |  | Cc1ccc(Nc2nc3nonc3nc2NC(C)(C)C)cc1Cl
< 4.98 |  | CCC(C)NC(=O)c1cccc(Nc2ccnc(-c3ccccc3)n2)c1 (configuration not stated)
